Experimental data as given in patent US7410955B2, “Therapeutic use of agonist ligands specific to G2A receptor” (Biosynergen, Inc., priority 2002, dated 2008).

Tests used:
monocytes (human PBMC) = test: IL-8 release induced by LPS in monocytes (ELISA); type: cell-based; conditions: 15 μM and 30 μM, 1 hour before 1 μg/ml LPS, supernatant after 3 hours
Description: Peripheral bloods were collected from a healthy person, put into a heparinized tube and then well mixed with 1× PBS buffer. Then, they were layered in Ficoll-Hypaque solution (density 1.077, Sigma Chemical Co., USA) and then centrifuged at 2500 rpm at 4° C. for 25 min. After the monocyte layer between Ficoll layer and plasma layer had been cautiously recovered, 1×PBS buffer was added thereto and mixed well. It was then centrifuged again at 2500 rpm at 4° C. for 25 min. Such centrifugation procedures were repeated twice until red blood cells were depleted. Thereafter, the pellet was cultured in FBS at 37° C. for 15 min and centrifuged at 2500 rpm for 10 min. Then, 1×PBS buffer was added again to the pellet. The isolated cells were layered in percoll solution (density 1.066) and then centrifuged at 2500 rpm at 4° C. for 30 min. After only monocyte layer had been recovered from the isolated layers, 1×PBS buffer was added thereto. They were centrifuged at 2500 rpm for 15 min. […]
The neutrophils and monocytes isolated in Examples <2-1> and <2-2> above were cultured in a 96-well plate to which RPMI1640 medium containing 10% FBS was added, at a concentration of 1×10^5 cells/well/0.2 ml, respectively. […] Then, the level of IL-8 was measured using ELISA kit (Biosource, USA).

[1] = test system: myeloperoxidase (MPO) in pulmonary tissues; test: Systemic LPS-induced acute lung injury model, lung MPO activity; type: in vivo, ICR mice
Description: ICR mice (25-30 g in body weight; MJ Ltd.) were intraperitoneally injected with LPS (induced from E. coli 055:B5) in an amount of 1 mg/kg thereby inducing Sepsis.
The activity of myeloperoxidase (MPO), an indicator of neutrophils, in pulmonary tissues was determined according to the methods of Goldblum et al (J. Appl. physiol. 59: 1978, 1985) and Parey et al (J. Immunol. 160:1007, 1998). First, mice were sacrificed and pulmonary tissues were obtained therefrom. The tissues had been homogenized in potassium phosphate buffer, and centrifuged to obtain pellets. These pellets were sonicated in potassium phosphate buffer containing 0.5% hexadecyltrimethylammonium bromide (HTAB), and incubated at 60° C. for 120 min. After centrifugation, supernatants were obtained. […] Accordingly, the absorbance of the mixture was determined at a wavelength of 460 nm. […]
ICR mice in LPS-induced septicemia model according to Reference Example <1-1> b) were divided into five groups of 7 mice (Sham group, an experimental group-1, an experimental group-2, an experimental group-3 and a control group). […] At 24 hours after LPS had been administered, the activity of MPO, an indicator of neutrophils, in the pulmonary tissues of the mice of each group, was determined as described in Reference Example 2.

neutrophils = test: Bactericidal activity of neutrophils from bacteria-induced sepsis model mice; type: cell-based; conditions: 30 μM 1-stearoyl LPC for 1 hour after E. coli ingestion, 1 hour killing time; vs PBS control
Description: ICR mice (25-30 g in body weight; MJ Ltd.) were intraperitoneally injected with alive 10^8 cells/ml E. coli (DH5a) that were suspended in 0.5 ml of PBS (phosphate-buffered saline) to cause peritonitis, thereby inducing sepsis.
The isolated neutrophils were adhered to the cover slip coated with poly-L-Lysine (0.01%) in a cell incubator maintained at 37° C., at a cell concentration of 10^6 cells/ml for 1 hour. Thereafter, E. coli was added thereto in a concentration of 10^6 cells/ml and cultured for 1 hour. E. coli cells that were not ingested by neutrophils were removed by washing the cover slip with PBS buffer. The cover slip was then treated with […] 1-stearoyl LPC, and further cultured for another 1 hour. In this stage, the cover slip of the control group was treated with PBS buffer, instead of LPC. Thereafter, after the exchange of a new RPMI-1640 medium, they were further cultured for 1 hour to give killing time. Then, the neutrophils were broken using Triton X-100 (0.05%), and accordingly E. coli cells were recovered. The recovered E. coli cells were spread onto a plate and cultured in an incubator maintained at 37° C. The number of E. coli cells that had grown on the medium was counted and subjected to statistical analysis. […]

CCCCCCCCCCCCCCCCCC(=O)OCC(O)COP(=O)([O-])OCC[N+](C)(C)C (stereo not shown) [1-stearoyl LPC, 1-stearoyl (18:0) lysophosphatidylcholine]
level of IL-8 release that had been increased by LPS in monocytes (monocytes (human PBMC)): inhibited by LPC in a concentration-dependent manner
activity of MPO in pulmonary tissues ([1]; 20 mg/kg subcutaneous (experimental group-3), p<0.01): the most excellent effects
activity of MPO in pulmonary tissues ([1]; 5, 10 and 20 mg/kg subcutaneous, 2 and 14 hours after intraperitoneal LPS 1 mg/kg, 24 hours after LPS, vs control group): suppressed in a concentration-dependent manner
number of alive E. coli recovered from neutrophils (neutrophils): significantly decreased
